Reference: patent US6740305B1, “Assessment of gastric emptying disorders” (Xanthus Life Scienes, Inc., priority 1999, dated 2004)

Columns and labels:
gastric emptying = test: Breath test with liquid test meal given with drugs known to accelerate or delay gastric emptying (FIG. 6); format: in vivo, human; conditions: [acyl]^13C-leucine as emptying probe
From the text: In FIG. 6 summarizing this experiment, metoclopramide is shown as a prokinetic agent. Similarly, loperamide is shown to delay emptying.

[1] = parameters: species or system human; conditions: in vivo, 1.5 mg/kg
From the text: In accordance with the present invention, the solid food to be checked and swallowed as the meal for a gastric emptying test is in the form of an edible, egg fortified muffin from a microwaveable recipe, freshly prepared prior to use. The base formulation consists of a bulk mix containing 92 grams of powdered, defatted milk; 320 grams of apple flavored instant muffin mix, 80 grams of finely grated Parmesan cheese and 0.6 gram of pulverized L-2-oxo[^13C]thiazolidine-4-carboxylic acid (OTZ) tracer probe. The mixture is homogenized in a food mill and stored in individual portions of 61.625 grams. Prior to cooking, the individual muffin mix is reconstituted in a microwaveable plastic dish with 110 ml of water and 61 grams of defatted egg substitute and then thoroughly blended and allowed to stand covered for 0.5 hour at room temperature. After shaking well, the mixture is uncovered and microwaved in a 500 watt oven for 4 minutes at medium power, rotated 120 degrees, and again microwaved for 4 minutes. The muffin is loosened around the edges, allowed to cool, and removed from the cooking container. […]
The samples are analyzed for isotopic content and corrected for interindividual differences in endogenous CO2 production rate in order to obtain the appropriate data points. […]

Row | Compound | Effect on gastric emptying (gastric emptying) | Absorption kinetics from appearance pattern of ^13CO2 in breath [1] | T1/2 (half-emptying time) [1]
1 | CN(C)C(=O)C(CCN1CCC(O)(c2ccc(Cl)cc2)CC1)(c1ccccc1)c1ccccc1 [loperamide] | emptying times trending toward greater than normal half-emptying values |  | 
2 | O=C(O)[C@@H]1CS[13C](=O)N1 [2-[^13C -OTZ, L-2-oxo[^13C]thiazolidine-4-carboxylic acid] |  | zero-order absorption kinetics | 19 +/− 4
3 | CCN(CC)CCNC(=O)c1cc(Cl)c(N)cc1OC [Metoclopramide, metoclopramide] | accelarated the gastric emptying profile in a statistically significant manner |  | 
